Experiments:
p38 MAPKα = p38 MAPKα (Homo sapiens (Human), UniProt Q16539); test: p38 MAPKα enzyme inhibition (FRET, Z-LYTE); type: biochemical
cSrc = cSrc (Homo sapiens (Human), UniProt P12931); test: c-Src enzyme inhibition (FRET, Z-LYTE); type: biochemical
Method in brief: (§1)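 Z-LYTE FRET kinase assay: enzyme (3000 or 2000 ng/mL stock, respectively) preincubated 2 h at RT with compound (4–0.004 μg/mL stocks), then FRET peptide plus ATP (800 μM stock for c-Src, 60 μM for Syk) added for 1 h. Protease development 1 h; phosphorylation from coumarin/fluorescein emission ratio.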

Syk = Syk (Homo sapiens (Human), UniProt P43405); test: Syk enzyme inhibition (FRET, Z-LYTE); type: biochemical
Method in brief: as §1

GSK3α = GSK3α (Homo sapiens (Human), UniProt P49840); test: GSK 3α enzyme inhibition (FRET, Z-LYTE); type: biochemical
Method in brief: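 Phosphorylation was read as the donor (coumarin) to acceptor (fluorescein) ratio after a 1 hr protease step destroying non-phosphorylated peptide. Before this, compound (4–0.004 μg/mL stocks) sat 2 hr at RT with GSK3α (500 ng/mL stock), followed by 1 hr kinase reaction with 8 μM peptide and 40 μM ATP stocks.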

[1] = system: LPS-induced TNFα release in d-U937 cells; test: LPS-induced TNFα release in d-U937 cells; type: cell-based; conditions: Homo sapiens, dU937, relative to 10 μg/mL BIRB796, read-out: LPS Induced Release of Cytokine in d-937 Cells TNFα REC50
Procedure: U937 cells, a human monocytic cell line, are differentiated into macrophage-type cells by incubation with PMA (100 ng/mL) for 48 to 72 hr. Cells are pre-incubated with final concentrations of test compound for 2 hr and are then stimulated with LPS (0.1 μg/mL) (from E. coli: O111:B4, Sigma) for 4 hr. The supernatant is collected for determination of TNFα and IL-8 concentrations by sandwich ELISA (Duo-set, R&D systems). […] The relative 50% effective concentration (REC50) is determined from the resultant concentration-response curve. The inhibition of IL-8 production is calculated at each concentration of test compound by comparison with vehicle control. […] (b) LPS-Induced TNFα/IL-8 Release in PBMC Cells

[2] = system: LPS-induced IL-8 release in d-U937 cells; test: LPS-induced IL-8 release in d-U937 cells; type: cell-based; conditions: Homo sapiens, dU937, read-out: LPS Induced Release of Cytokine in d-937 Cells IL-8 IC50
Method in brief: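 Human monocytic U937 cells were differentiated to macrophage-type cells with PMA (100 ng/mL) for 48 to 72 hr, pre-treated with test compound for 2 hr, then stimulated 4 hr with E. coli O111:B4 LPS (0.1 μg/mL). Supernatant TNFα and IL-8 were measured by sandwich ELISA; REC50 came from concentration-response curves.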

[3] = system: Poly I:C-induced ICAM-1 expression in BEAS2B cells; test: Poly I:C-induced ICAM-1 expression in BEAS2B cells; type: cell-based; conditions: Homo sapiens, BEAS-2B, read-out: Poly IC induced ICAM1 in BEAS2B IC50
Method in brief: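 Cell-based ELISA read at 450 nm minus 655 nm, divided by crystal violet OD595 to normalize for cell number, gave ICAM-1 levels. Readout was taken 18 hr after poly I:C (1 μg/mL, Oligofectamine) transfection of human bronchial BEAS2B cells pretreated 2 hr with test compound.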

d-U937 cells = test: Cell viability: MTT assay; type: cell-based, human; conditions: 1 μg/mL
Method in brief: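 MTT read-out (1 h, absorbance 550 nm) on d-U937 cells after pre-incubation with 1 or 10 μg/mL compound under two regimes: 4 h, 5% FCS, or 24 h, 10% FCS RPMI1640. Values are percent loss of viability relative to vehicle (0.5% DMSO), so increases are reported as negative.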

Sequence of cSrc (P12931 whole entry, looked up): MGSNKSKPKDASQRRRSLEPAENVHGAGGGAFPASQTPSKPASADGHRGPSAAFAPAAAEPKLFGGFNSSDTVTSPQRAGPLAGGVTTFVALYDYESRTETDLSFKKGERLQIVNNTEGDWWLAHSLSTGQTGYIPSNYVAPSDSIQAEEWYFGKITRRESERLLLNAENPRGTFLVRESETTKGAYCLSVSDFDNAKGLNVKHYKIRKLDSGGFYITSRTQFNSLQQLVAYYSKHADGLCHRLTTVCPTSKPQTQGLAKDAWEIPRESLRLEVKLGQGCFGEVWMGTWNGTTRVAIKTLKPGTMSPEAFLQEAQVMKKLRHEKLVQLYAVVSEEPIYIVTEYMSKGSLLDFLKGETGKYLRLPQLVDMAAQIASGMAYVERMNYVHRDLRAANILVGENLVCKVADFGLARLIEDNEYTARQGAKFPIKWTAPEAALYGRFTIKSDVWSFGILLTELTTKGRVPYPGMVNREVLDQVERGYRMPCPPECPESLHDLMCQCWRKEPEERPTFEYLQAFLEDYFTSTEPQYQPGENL
Sequence of GSK3α (P49840 whole entry): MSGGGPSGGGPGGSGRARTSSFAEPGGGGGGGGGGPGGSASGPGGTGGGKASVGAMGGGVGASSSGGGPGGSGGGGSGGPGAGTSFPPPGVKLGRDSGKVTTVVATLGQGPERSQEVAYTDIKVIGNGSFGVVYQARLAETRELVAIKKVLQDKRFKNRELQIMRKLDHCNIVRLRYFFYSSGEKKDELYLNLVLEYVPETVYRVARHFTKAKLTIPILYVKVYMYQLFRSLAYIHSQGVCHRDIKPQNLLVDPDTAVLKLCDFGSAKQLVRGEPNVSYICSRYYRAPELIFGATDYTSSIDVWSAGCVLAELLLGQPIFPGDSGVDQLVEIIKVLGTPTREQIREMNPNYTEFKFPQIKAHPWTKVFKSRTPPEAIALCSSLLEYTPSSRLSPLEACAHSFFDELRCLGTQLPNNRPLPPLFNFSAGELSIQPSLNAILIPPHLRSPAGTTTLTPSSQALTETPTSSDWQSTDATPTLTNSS
Sequence of p38 MAPKα (Q16539 whole entry): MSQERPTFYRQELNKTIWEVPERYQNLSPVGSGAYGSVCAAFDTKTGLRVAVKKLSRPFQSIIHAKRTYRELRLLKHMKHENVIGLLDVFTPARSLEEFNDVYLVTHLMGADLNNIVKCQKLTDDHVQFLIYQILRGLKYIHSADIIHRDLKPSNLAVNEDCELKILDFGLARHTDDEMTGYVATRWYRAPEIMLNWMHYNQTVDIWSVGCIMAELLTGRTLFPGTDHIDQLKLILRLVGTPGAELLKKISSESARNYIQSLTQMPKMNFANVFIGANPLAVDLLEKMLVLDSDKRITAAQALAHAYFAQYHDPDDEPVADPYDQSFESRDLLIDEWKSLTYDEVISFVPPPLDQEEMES

| IC50 (p38 MAPKα) [nM] | IC50 (cSrc) [nM] | IC50 (Syk) [nM] | IC50 (GSK3α) [nM] | EC50 [1] [nM] | IC50 [2] [nM] | SMILES | IC50 [3] [nM] | MTT Assay Cell viability at time point in d-U937 cells 4 h (d-U937 cells) | MTT Assay Cell viability at time point in d-U937 cells 24 h (d-U937 cells) |
| --- | --- | --- | --- | --- | --- | --- | --- | --- | --- |
| 31 | < 1 | 2 | 1170 | 16.4 | 34 | CC(C)(C)c1cc(NC(=O)Nc2ccc(Oc3ccnc(Nc4ccc5c(c4)NC(=O)C5)n3)c3ccccc23)n(-c2cccc(OCCN3CCOCC3)c2)n1 [Example 50, 1-(3-(tert-butyl)-1-(3-(2-morpholinoethoxy)phenyl)-1H-pyrazol-5-yl)-3-(4-((2-((2-oxoindolin-6-yl)amino)pyrimidin-4-yl)oxy)naphthalen-1-yl)urea] | 2.7 | −ve (−ve and +ve indicate that the value is below and above respectively, the no significant effect threshold, defined as 30% inhibition at 1 μg/mL at the time point indicated.) | −ve (−ve and +ve indicate that the value is below and above respectively, the no significant effect threshold, defined as 30% inhibition at 1 μg/mL at the time point indicated.) |
| 177 | 14 | 162 | > 16000 | 1.6 | 5.3 | Cc1ccc(-n2nc(C(C)(C)C)cc2NC(=O)Nc2ccc(Oc3ccnc(Nc4cnc5[nH]ncc5c4)n3)c3ccccc23)cc1 [Example 6, 1-(4-((2-((1H-Pyrazolo[3,4-b]pyridin-5-yl)amino)pyrimidin-4-yl)oxy)naphthalen-1-yl)-3-(3-(tert-butyl)-1-(p-tolyl)-1H-pyrazol-5-yl)urea] | 1.7 | −ve (−ve and +ve indicate that the value is below and above respectively, the no significant effect threshold, defined as 30% inhibition at 1 μg/mL at the time point indicated.) | −ve (−ve and +ve indicate that the value is below and above respectively, the no significant effect threshold, defined as 30% inhibition at 1 μg/mL at the time point indicated.) |
| 7 | < 1 | 16 | 827 | 2.2 | 4.1 | CC(C)(C)c1cc(NC(=O)Nc2ccc(Oc3ccnc(Nc4ccc5[nH]ncc5c4)n3)c3ccccc23)n(-c2ccc(=O)n(CCO)c2)n1 [Example 86, 1-(4-((2-((1H-indazol-5-yl)amino)pyrimidin-4-yl)oxy)naphthalen-1-yl)-3-(3-(tert-butyl)-1-(1-(2-hydroxyethyl)-6-oxo-1,6-dihydropyridin-3-yl)-1H-pyrazol-5-yl)urea] | 8.3 | −ve (−ve and +ve indicate that the value is below and above respectively, the no significant effect threshold, defined as 30% inhibition at 1 μg/mL at the time point indicated.) | −ve (−ve and +ve indicate that the value is below and above respectively, the no significant effect threshold, defined as 30% inhibition at 1 μg/mL at the time point indicated.) |
| 12 | 7 | 32 | 1010 | 1.8 | 1.9 | Cc1ccc(-n2nc(C(C)(C)C)cc2NC(=O)Nc2ccc(Oc3ccnc(Nc4ccc5c(c4)CC(=O)N5)n3)c3ccccc23)cc1 [Example 19, 1-(3-(tert-butyl)-1-(p-tolyl)-1H-pyrazol-5-yl)-3-(4-((2-((2-oxoindolin-5-yl)amino)pyrimidin-4-yl)oxy)naphthalen-1-yl)urea] | 2.4 | −ve (−ve and +ve indicate that the value is below and above respectively, the no significant effect threshold, defined as 30% inhibition at 1 μg/mL at the time point indicated.) | −ve (−ve and +ve indicate that the value is below and above respectively, the no significant effect threshold, defined as 30% inhibition at 1 μg/mL at the time point indicated.) |
| 523 | 46 | 756 | > 16000 | 0.8 | 1.7 | Cc1ccc(-n2nc(C(C)(C)C)cc2NC(=O)Nc2ccc(Oc3ccnc(Nc4cccc5cn[nH]c45)n3)c3ccccc23)cc1 [Example 25] | 14.1 | −ve (−ve and +ve indicate that the value is below and above respectively, the no significant effect threshold, defined as 30% inhibition at 1 μg/mL at the time point indicated.) | −ve (−ve and +ve indicate that the value is below and above respectively, the no significant effect threshold, defined as 30% inhibition at 1 μg/mL at the time point indicated.) |
| 10 | 11 | 39 | > 16000 | 5.8 | 15.3 | COc1ccc(-n2nc(C(C)C)cc2NC(=O)Nc2ccc(Oc3cc(Nc4ccc5[nH]ncc5c4)ncn3)c3ccccc23)cc1 [Example 39, 1-(4-((6-((1H-indazol-5-yl)amino)pyrimidin-4-yl)oxy)naphthalen-1-yl)-3-(3-isopropyl-1-(4-methoxyphenyl)-1H-pyrazol-5-yl)urea] | 160 | −ve (−ve and +ve indicate that the value is below and above respectively, the no significant effect threshold, defined as 30% inhibition at 1 μg/mL at the time point indicated.) | −ve (−ve and +ve indicate that the value is below and above respectively, the no significant effect threshold, defined as 30% inhibition at 1 μg/mL at the time point indicated.) |
| 101 | 22 | 65 | > 16100 | 2 | 2.6 | Cc1ccc(-n2nc(C(C)(C)C)cc2NC(=O)Nc2ccc(Oc3ccnc(Nc4cccc5[nH]ccc45)n3)c3ccccc23)cc1 [Example 16] | 8.9 | −ve (−ve and +ve indicate that the value is below and above respectively, the no significant effect threshold, defined as 30% inhibition at 1 μg/mL at the time point indicated.) | −ve (−ve and +ve indicate that the value is below and above respectively, the no significant effect threshold, defined as 30% inhibition at 1 μg/mL at the time point indicated.) |
| 86 | 9 | 25 | 461 | 1.5 | 1.9 | CC(C)(C)c1cc(NC(=O)Nc2ccc(Oc3ccnc(Nc4ccc5ncsc5c4)n3)c3ccccc23)n(-c2ccc(OCCN3CCOCC3)cc2)n1 [Example 80, 1-(4-((2-(benzo[d]thiazol-6-ylamino)pyrimidin-4-yl)oxy)naphthalen-1-yl)-3-(3-(tert-butyl)-1-(4-(2-morpholinoethoxy)phenyl)-1H-pyrazol-5-yl)urea] | 1.9 | −ve (−ve and +ve indicate that the value is below and above respectively, the no significant effect threshold, defined as 30% inhibition at 1 μg/mL at the time point indicated.) | −ve (−ve and +ve indicate that the value is below and above respectively, the no significant effect threshold, defined as 30% inhibition at 1 μg/mL at the time point indicated.) |
| > 1520 | 164 | 711 | > 1520 | 1.6 | 1.7 | Cc1ccc(-n2nc(C(C)(C)C)cc2NC(=O)Nc2ccc(Oc3ccnc(Nc4cc(Cl)c5[nH]ncc5c4)n3)c3ccccc23)cc1 [Example 28, 1-(3-(tert-butyl)-1-(p-tolyl)-1H-pyrazol-5-yl)-3-(4-((2-((7-chloro-1H-indazol-5-yl)amino)pyrimidin-4-yl)oxy)naphthalen-1-yl)urea] | 3.4 | −ve (−ve and +ve indicate that the value is below and above respectively, the no significant effect threshold, defined as 30% inhibition at 1 μg/mL at the time point indicated.) | −ve (−ve and +ve indicate that the value is below and above respectively, the no significant effect threshold, defined as 30% inhibition at 1 μg/mL at the time point indicated.) |
